According to patent US11911393B2, “Non-catalytic substrate-selective p38alpha-specific MAPK inhibitors with endothelial-stabilizing and anti-inflammatory activity, and methods of use thereof” (University of Maryland, Baltimore, priority 2016, dated 2024):
Entries after “also recorded” stand apart in the source; their conditions may differ. Read-outs that look alike come from different tables or passages of the source.

Key:
[1] = molecular target: T1, unphosphorylated recombinant human p38α (Homo sapiens, UniProt Q16539); experiment: Differential scanning fluorimetry (DSF), binding to p38α; conditions: for stabilization of p38α in DSF (binding), in words: DSF melting temperature, concentration series
T1 construct: made in house; host or cells: E. coli BL21

[2] = molecular target: ERK2 (Homo sapiens, UniProt P28482); experiment: DSF, binding to ERK2; conditions: for ERK2 ΔTm (° C.) @100 μM / ΔTm at 100 µM: change in melting temperature relative to DMSO control in DSF assay; for stabilization of ERK2 in DSF (binding), in words: test compounds at 10-100 μM
[3] = system: patients with hypercholesterolemia; conditions: cited from earlier work
[4] = system: HMVECL monolayers; experiment: Endothelial permeability assay (10 kDa dextran flux); format: cell-based, human; conditions: for reduction of TNFα/hyperthermia-induced permeability increase: HMVECL, 10 kDa dextran, TNFα and 39.5° C. for 6 h
Method: Endothelial permeability assay: Permeability of HMVECL monolayers was assessed by measuring transendothelial flux of 10 kDa dextran conjugated to Cascade blue fluorescent dye for 30 min at 37° C. in Matrigel-coated 3 μm pore size Transwell plates.

[5] = system: IL-8-directed neutrophil TEM through HMVECLs; experiment: Neutrophil transendothelial migration (TEM) assay; format: cell-based, human; conditions: HMVECLs preincubated at 39.5° C. for 6 h
[6] = system: LPS/hyperthermia-induced ALI in CD1 mice; experiment: Mouse i.t. LPS/FRH-induced acute lung injury model; conditions: for mice that died within 24 h: single i.p. injection of 100-1000 μg UM101, 1000 μg UM60 or 1000 μg SB203580, 30 min before i.t. 50 μg LPS and hyperthermia; for reduction of lavage neutrophil content vs. DMSO-treated controls: mouse LPS/hyperthermia ALI, 24 h
[7] = system: HMVECLs; experiment: Cytotoxicity assay (MTS, LDH release); format: cell-based, human; conditions: 100 μM for 48 h
Method: Cytotoxicity of HMVECL exposed to 10-100 μM of each compound is analyzed by MTS assay (Promega), LDH release (Promega), and immunoblotting for activated caspase-3 (Cell Signaling).
Cytotoxicity assay: Cytotoxicity was monitored in parallel HMVEC-L monolayers established in 96-well culture plates using a colorimetric assay that measured reduction of 3-(4,5-dimethylthiazol-2-yl)-5-(3-carboxymethoxyphenyl)-2-(4-sulfophenyl)-2H-tetrazolium (MTS) to a formazan dye (CellTiter 96™; Promega; Madison, WI) according to the manufacturer's protocol and quantifying product formation by measuring absorption at 490 nm.

[8] = system: patients at-risk for ARDS; conditions: early phase IIa trial, cited from earlier work
[9] = system: patients with Crohn's disease; conditions: cited from earlier work
[10] = system: rheumatoid arthritis; conditions: two trials in rheumatoid arthritis; cited from earlier work
[11] = molecular target: T2, p38β (Homo sapiens, UniProt Q15759); experiment: DSF, binding to p38β; conditions: DSF melting temperature, concentration series
T2 construct: HA (N); made in house; host or cells: E. coli BL21

[12] = molecular target: T3, mutated p38α (Homo sapiens, UniProt Q16539, H107T/K165R/L108F/R49K); experiment: STD-NMR, binding to mutated p38α; conditions: 200 μM UM101, 5 μM p38 protein
T3 construct: made in house; host or cells: E. coli BL21
Method: (§1) Spectra were recorded on an Agilent DD2 500-MHz spectrometer equipped with a 5-mm inverse HFCN probe head at 300 K. During each transient, the protein was saturated with a series of 58 […]-shaped pulses (50 ms, 1 ms delay between pulses) using the vendor-supplied STD-ES pulse sequence, for a total saturation time of 3 seconds. The on-resonance irradiation of protein was done at 0.5 ppm and off-resonance irradiation at 30 ppm. The vendor-supplied WATERGATE pulse sequence was used to suppress the water signal in the STD spectrum. The on-resonance and off-resonance pulse sequences were subtracted internally. A total of 16,384 transients were collected for each STD experiment with a 1 second delay between acquisitions, 6000 Hz spectral width, and 1.3 second acquisition time.

[13] = molecular target: T4, p38α mutant (R49K/HL107-8TF/K165R) (Homo sapiens, UniProt Q16539, H107T/K165R/L108F/R49K); experiment: DSF, binding to target-disrupted p38α mutant; conditions: compared with wild-type p38α
T4 construct: made in house; host or cells: E. coli BL21

[14] = system: p38-dependent phosphorylation of MK2 and Stat-1 in HeLa cells; experiment: Inhibition of substrate phosphorylation (immunoblot); format: cell-based, human; conditions: 10 μM SB203580 or 50 μM UM101 for 30 min
Description: Cell extracts prepared in RIPA buffer containing protease and phosphatase inhibitors were resolved by SDS-PAGE, transferred to PVDF membrane, blocked with 5% nonfat dry milk, probed with primary antibodies against phosphorylated MK2 and Stat-1, and total p38α as a loading control. Bands were detected using secondary antibodies conjugated to infrared fluorophores and infrared fluorescence imaging (Odyssey; LICOR).

[15] = molecular target: T2, p38β; experiment: STD-NMR, binding to p38β; conditions: 200 μM UM101, 5 μM p38 protein
Method: as §1

[16] = system: LPS-induced cytokine expression in PMA-differentiated THP1 cells; experiment: LPS-induced cytokine expression, PCR-based cytokine array; format: cell-based, human; conditions: 25 μM SB203580 or 10, 25, or 100 μM UM101
[17] = molecular target: T5, p38α (Homo sapiens, UniProt Q16539); experiment: STD-NMR, binding to p38α; conditions: 200 μM UM101, 5 μM p38 protein
T5 construct: made in house; host or cells: E. coli BL21
Method: as §1

[18] = 100 μM, change in melting temperature relative to DMSO control in DSF assay
[19] = 100 μM, change in melting temperature relative to DMSO control in DSF assay, read-out: p38α ΔTm (° C.) @100 μM
[20] = added at 100 μM, DSF, read-out: increase in melting temperature of p38α

T1 sequence (Q16539 whole entry): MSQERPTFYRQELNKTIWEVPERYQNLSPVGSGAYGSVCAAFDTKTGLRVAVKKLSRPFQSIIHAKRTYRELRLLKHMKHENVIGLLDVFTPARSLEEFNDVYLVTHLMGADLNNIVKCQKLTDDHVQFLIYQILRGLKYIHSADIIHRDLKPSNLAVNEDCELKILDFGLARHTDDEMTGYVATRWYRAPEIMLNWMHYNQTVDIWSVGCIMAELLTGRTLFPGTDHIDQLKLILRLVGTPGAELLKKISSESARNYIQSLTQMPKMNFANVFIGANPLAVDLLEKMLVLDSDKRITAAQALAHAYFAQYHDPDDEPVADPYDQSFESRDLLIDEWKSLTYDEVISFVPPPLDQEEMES
ERK2, sequence (P28482 whole entry, species assumed): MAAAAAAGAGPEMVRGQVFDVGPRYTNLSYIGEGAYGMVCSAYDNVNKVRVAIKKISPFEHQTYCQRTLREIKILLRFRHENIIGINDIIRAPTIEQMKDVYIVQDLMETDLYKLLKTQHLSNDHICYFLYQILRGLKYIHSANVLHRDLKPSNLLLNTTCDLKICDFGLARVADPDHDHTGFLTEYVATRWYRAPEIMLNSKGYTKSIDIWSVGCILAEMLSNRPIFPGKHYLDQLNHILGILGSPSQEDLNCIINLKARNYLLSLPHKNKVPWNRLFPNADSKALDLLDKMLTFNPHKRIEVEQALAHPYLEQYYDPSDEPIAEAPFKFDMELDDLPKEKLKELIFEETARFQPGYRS
T2 sequence (Q15759 whole entry): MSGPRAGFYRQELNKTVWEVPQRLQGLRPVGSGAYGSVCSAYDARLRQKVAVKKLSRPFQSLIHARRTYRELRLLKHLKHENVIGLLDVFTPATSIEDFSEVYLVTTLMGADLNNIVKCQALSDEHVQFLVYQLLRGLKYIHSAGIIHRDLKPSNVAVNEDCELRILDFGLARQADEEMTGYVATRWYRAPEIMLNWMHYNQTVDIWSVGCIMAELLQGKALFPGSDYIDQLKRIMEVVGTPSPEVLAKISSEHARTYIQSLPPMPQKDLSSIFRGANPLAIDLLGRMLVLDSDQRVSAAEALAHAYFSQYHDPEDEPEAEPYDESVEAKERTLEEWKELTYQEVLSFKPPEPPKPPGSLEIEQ
T4 sequence (Q16539 whole entry R49K/H107T/L108F/K165R): as the sequence (Q16539 whole entry) above, with R49K, H107T, L108F, K165R counted along it
T5 sequence (Q16539 whole entry): as the sequence (Q16539 whole entry) above
T3 sequence (Q16539 whole entry R49K/H107T/L108F/K165R): as the sequence (Q16539 whole entry) above, with R49K, H107T, L108F, K165R counted along it

SMILES: O=S(=O)(CCS(=O)(=O)c1ccccn1)c1ccc(Cl)cc1 [compound 69]
- p38α ΔTm (° C.) @100 μM [1, 18]: −0.233 °C
- ERK2 ΔTm (° C.) @100 μM [2]: 0.361 °C

SMILES: COc1ccccc1N1CCN(CCCCNS(=O)(=O)c2ccc(C)cc2)CC1 [compound 2]
- p38α ΔTm (° C.) @100 μM [1, 18]: −0.05 °C
- ERK2 ΔTm (° C.) @100 μM [2]: 0.412 °C

SMILES: Cc1c(F)cc(C(=O)NC2CC2)cc1-c1ccc(C(=O)NCC(C)(C)C)cn1 [losmapimod]
- serum CRP [3]: reduced
- vascular relaxation [3]: improved

SMILES: O=C1c2cc(S(=O)(=O)NCCO)ccc2-c2ccc(S(=O)(=O)NCCO)cc21 [UM60, N2,N7-di(2-hydroxyethyl)-9-oxo-9H-2,7-fluorenedisulfonamide]
- reduction of TNFα/hyperthermia-induced permeability increase ([4]; 10 μM): no effect
- reduction of TNFα/hyperthermia-induced permeability increase ([4]; 25 μM): no effect
- reduction of TNFα/hyperthermia-induced permeability increase ([4]; 100 μM): 71%
- reduction of hyperthermia-augmented neutrophil TEM ([5]; 10 μM): 18%
- reduction of hyperthermia-augmented neutrophil TEM ([5]; 25 μM): 89%
- reduction of hyperthermia-augmented neutrophil TEM ([5]; 50 μM): less than baseline levels
- ΔTm at 100 µM [1, 19]: 0.735 °C
- stabilization of p38α in DSF (binding), in words [1]: stabilized p38α
- ΔTm at 100 µM [1, 20]: ~0.7 °C
- mice that died within 24 h [6]: Four of six
- ΔTm at 100 µM [2]: 0.195 °C
- stabilization of ERK2 in DSF (binding), in words [2]: not ERK2
- toxicity in LDH release and MTS assays [7]: Neither compound was toxic

SMILES: Cc1nc(S(=O)(=O)NCc2cc(F)cc3c2OCOC3)cn1C [compound 150]
- p38α ΔTm (° C.) @100 μM [1, 18]: −0.171 °C
- ERK2 ΔTm (° C.) @100 μM [2]: 0.133 °C

SMILES: O=S(=O)(c1ccccc1)N(Cc1ccccn1)Cc1ccccn1 [compound 16]
- p38α ΔTm (° C.) @100 μM [1, 18]: −0.052 °C
- ERK2 ΔTm (° C.) @100 μM [2]: 0.444 °C

SMILES: Cc1nc(-c2ccc(S(=O)(=O)NCCCN)s2)cs1 [compound 8]
- p38α ΔTm (° C.) @100 μM [1, 18]: −0.07 °C
- ERK2 ΔTm (° C.) @100 μM [2]: 0.531 °C

SMILES: Cc1cc(F)ccc1-c1nc(NC(CO)CO)nc2c1ccc(=O)n2-c1c(F)cccc1F [dilmapimod]
- serum C-reactive protein (CRP) levels ([8]; patients at-risk for ARDS): modestly reduced
- safety in patients at-risk for ARDS [8]: safe at the doses administered

SMILES: O=S(=O)(NCc1csc(-c2cccs2)n1)c1ccc2c(c1)CCO2 [compound 23]
- p38α ΔTm (° C.) @100 μM [1, 18]: −0.488 °C
- ERK2 ΔTm (° C.) @100 μM [2]: −0.598 °C

SMILES: CS(=O)(=O)N1CCN(c2ncccc2C(F)(F)F)CC1 [compound 13]
- p38α ΔTm (° C.) @100 μM [1, 18]: 0.005 °C
- ERK2 ΔTm (° C.) @100 μM [2]: 0.390 °C

SMILES: O=C1NCCN1CCNS(=O)(=O)c1ccc(S(=O)(=O)c2ccccc2)s1 [compound 3]
- p38α ΔTm (° C.) @100 μM [1, 18]: 0.282 °C
- stabilization of p38α in DSF (binding), in words [1]: concentration-dependent stabilization of p38α
- ERK2 ΔTm (° C.) @100 μM [2]: 0.337 °C
- stabilization of ERK2 in DSF (binding), in words [2]: also stabilized ERK2

SMILES: CN1CCN(c2ccc(CNS(=O)(=O)c3ccc(-c4ccon4)s3)cc2)CC1 [compound 5]
- p38α ΔTm (° C.) @100 μM [1, 18]: 0.808 °C
- stabilization of p38α in DSF (binding), in words [1]: concentration-dependent stabilization of p38α
- ERK2 ΔTm (° C.) @100 μM [2]: 0.628 °C
- stabilization of ERK2 in DSF (binding), in words [2]: also stabilized ERK2

SMILES: Cc1ccc(-n2nc(C(C)(C)C)cc2NC(=O)Nc2ccc(OCCN3CCOCC3)c3ccccc23)cc1 [BIRB 796]
- clinical effect in Crohn's disease [9]: no clinical effect
- serum CRP levels [9]: transiently reduced

SMILES: O=C(CSc1cccs1)NCCSCc1ccco1 [compound 146]
- p38α ΔTm (° C.) @100 μM [1, 18]: −1.084 °C
- ERK2 ΔTm (° C.) @100 μM [2]: −1.632 °C

SMILES: NC(=O)c1ccc(N(C(N)=O)c2c(F)cccc2F)nc1-c1ccc(F)cc1F [VX-702]
- proportion of treated subjects with ACR20 symptom score vs. placebo [10]: small increases

SMILES: CN1CCN(CC(=O)Nc2ccc(S(N)(=O)=O)cc2)CC1 [compound 4]
- p38α ΔTm (° C.) @100 μM [1, 18]: 0.065 °C
- ERK2 ΔTm (° C.) @100 μM [2]: 0.452 °C

SMILES: O=C(Nc1ccc(CN2CCS(=O)(=O)CC2)cc1)c1ccc(Cl)cc1 [UM101, 4-chloro-N-{4-[(1,1-dioxo-1 lambda˜6˜,4-thiazinan-4-yl)methyl]phenyl}benzamide]
- reduction of TNFα/hyperthermia-induced permeability increase ([4]; 10 μM): 74%
- reduction of TNFα/hyperthermia-induced permeability increase ([4]; 25 μM): 89%
- reduction of TNFα/hyperthermia-induced permeability increase ([4]; 100 μM): > 100%
- endothelial barrier stabilization compared with SB203580, in words ([4]; HMVECL barrier assays (FIG. 2a, 2b)): more effectively stabilized endothelial barriers than SB203580
- stabilization of p38β in DSF (binding), in words [11]: not p38β; also recorded: only stabilized p38α
- interaction with mutated p38α in STD-NMR, in words [12]: much weaker
- binding to p38α mutant with four of ten target pocket amino acids substituted, in words [13]: abrogated UM101 binding; also recorded: no UM101-binding
- reduction of hyperthermia-augmented neutrophil TEM ([5]; 10 μM): 95%
- reduction of hyperthermia-augmented neutrophil TEM ([5]; 25 μM): less than baseline levels
- reduction of hyperthermia-augmented neutrophil TEM ([5]; 50 μM): less than baseline levels
- anisomycin-stimulated phosphorylation of MK2, in words [14]: partial inhibition of MK2 phosphorylation
- anisomycin-stimulated phosphorylation of Stat-1, in words [14]: reduced
- anisomycin-stimulated phosphorylation of MK2, in words ([14]; listed as UM1010): reduced
- ΔTm at 100 µM [1, 19]: 0.667 °C
- stabilization of p38α in DSF (binding), in words [1]: concentration-dependent increase in melting temperature of p38α; also recorded: only stabilized p38α
- ΔTm at 100 µM [1, 20]: ~0.7 °C
- interaction with p38β in STD-NMR, in words [15]: much weaker
- reduction of lavage neutrophil content vs. DMSO-treated controls ([6]; 100 μg i.p.): 44.4%
- reduction of lavage neutrophil content vs. DMSO-treated controls ([6]; 300 μg i.p.): 49.5%
- reduction of lavage neutrophil content vs. DMSO-treated controls ([6]; 500 μg i.p.): 55.3%
- reduction of lavage neutrophil content vs. DMSO-treated controls ([6]; 1000 μg i.p.): 54%
- tolerability and potency compared with SB203580 in experimental ALI, in words ([6]; mouse LPS/FRH-induced ALI): well tolerated and more potent than SB203580 in mitigating experimental ALI; also recorded: more potent than SB203580 in reducing neutrophil and protein accumulation in BAL
- mice that died within 24 h [6]: All sixteen UM101-pretreated mice survived
- ΔTm at 100 µM [2]: 0.0175 °C
- stabilization of ERK2 in DSF (binding), in words [2]: not ERK2
- toxicity in LDH release and MTS assays [7]: Neither compound was toxic
- LPS-stimulated genes of the array (16) whose expression was inhibited, in words [16]: inhibited expression of all SB203580-inhibited genes except TNFSF9
- interaction with p38α in STD-NMR, in words [17]: confirmed specific UM101 binding to p38α; also recorded: protons in both aromatic rings of UM101 interact with p38α
